Results from patent publication US11053204B2, “Pyrimidinyloxy benzene derivatives as herbicides” (FMC Corporation, priority 2015, dated 2021).

Assays:
Type in all cases: in vivo
[1] = tested on: wild poinsettia (Euphorbia heterophylla); test: Test C preemergence, plant response rating
[2] = tested on: barnyardgrass (Echinochloa crus-galli); test: Test C preemergence, plant response rating; conditions: Preemergence
[3] = tested on: oat, wild (wild oat Avena fatua); test: Test C preemergence, plant response rating
[4] = tested on: surinam grass (Brachiaria decumbens); test: Test C preemergence, plant response rating
[5] = tested on: johnsongrass (Sorghum halepense); test: Test C preemergence, plant response rating
[6] = tested on: velvetleaf (Abutilon theophrasti); test: Test C postemergence, plant response rating
How it was run: (§1)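 Greenhouse plants rated visually against untreated controls 13–15 d after treatment, scale 0 = no effect to 100 = complete control. Postemergence sprays went onto potted plants 2–18 cm tall (1–4 leaves); preemergence sprays onto soil freshly sown in loam–sand or silt loam, chemicals formulated in non-phytotoxic solvent with surfactant.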

[7] = tested on: blackgrass (Alopecurus myosuroides); test: Test C postemergence, plant response rating; conditions: for Plant response rating, Blackgrass: scale 0 to 100; for Blackgrass plant response rating: scale 0 to 100 (0 no effect, 100 complete control)
How it was run: as §1

[8] = tested on: chickweed (common chickweed, Stellaria media); test: Test C postemergence, plant response rating; conditions: for Chickweed plant response rating: scale 0 to 100 (0 no effect, 100 complete control)
How it was run: as §1

[9] = tested on: oat, wild (wild oat Avena fatua); test: Test C postemergence, plant response rating; conditions: for Oat, Wild plant response rating: scale 0 to 100 (0 no effect, 100 complete control)
How it was run: as §1

[10] = tested on: lambsquarters (Chenopodium album); test: Test C postemergence, plant response rating; conditions: for Lambsquarters plant response rating: scale 0 to 100 (0 no effect, 100 complete control)
How it was run: as §1

[11] = tested on: ragweed (common ragweed, Ambrosia elatior); test: Test C postemergence, plant response rating; conditions: for Ragweed plant response rating: scale 0 to 100 (0 no effect, 100 complete control)
How it was run: as §1

[12] = tested on: nutsedge, yellow (yellow nutsedge, Cyperus esculentus); test: Test C postemergence, plant response rating; conditions: for Nutsedge, Yellow plant response rating: scale 0 to 100 (0 no effect, 100 complete control)
How it was run: as §1

[13] = tested on: morningglory (Ipomoea coccinea); test: Test C postemergence, plant response rating; conditions: for Morningglory plant response rating: scale 0 to 100 (0 no effect, 100 complete control)
How it was run: as §1

[14] = tested on: wheat (winter wheat, Triticum aestivum); test: Test C postemergence, plant response rating
How it was run: as §1

[15] = tested on: ryegrass, Italian (Italian ryegrass, Lolium multiflorum); test: Test C postemergence, plant response rating; conditions: for Ryegrass, Italian plant response rating: scale 0 to 100 (0 no effect, 100 complete control)
How it was run: as §1

kochia (Kochia scoparia) = test: Test C preemergence, plant response rating
[16] = tested on: windgrass (Apera spica-venti); test: Test C preemergence, plant response rating
[17] = tested on: pigweed, palmer (palmer pigweed, Amaranthus palmeri); test: Test C preemergence, plant response rating
[18] = tested on: galium (catchweed bedstraw, Galium aparine); test: Test C preemergence, plant response rating
[19] = 125 g ai/ha, scale 0 to 100 (0 no effect, 100 complete control)

FC(F)(F)CCCCc1c(Br)cccc1Oc1ncc(Cl)cn1 [Compound 138]
55: Plant response rating, Oat, Wild ([9]; 31 g ai/ha, scale 0 to 100) | Plant response rating, Morningglory ([13]; 31 g ai/ha, scale 0 to 100)
80: Plant response rating, Barnyardgrass ([2]; 62 g ai/ha, scale 0 to 100) | Plant response rating, Kochia (kochia (Kochia scoparia); 62 g ai/ha, scale 0 to 100) | Plant response rating, Kochia (kochia (Kochia scoparia); 125 g ai/ha, scale of 0 to 100)
85: Plant response rating, Chickweed ([8]; 31 g ai/ha, scale 0 to 100)
0: Plant response rating, Poinsettia, Wild ([1]; 31 g ai/ha, scale 0 to 100) | Plant response rating, Oat, Wild ([3]; 31 g ai/ha, scale 0 to 100) | Plant response rating, Johnsongrass ([5]; 31 g ai/ha, scale 0 to 100) | Plant response rating, Ragweed ([11]; 16 g ai/ha, scale of 0 to 100) | Plant response rating, Nutsedge, Yellow ([12]; 16 g ai/ha, scale of 0 to 100) | Plant response rating, Nutsedge, Yellow ([12]; 31 g ai/ha, scale 0 to 100) | Plant response rating, Galium ([18]; 31 g ai/ha, scale 0 to 100)
75: Plant response rating, Surinam Grass ([4]; 125 g ai/ha, scale of 0 to 100) | Velvetleaf plant response rating [6, 19] | Plant response rating, Chickweed ([8]; 16 g ai/ha, scale of 0 to 100) | Ragweed plant response rating ([11]; 125 g ai/ha) | Plant response rating, Kochia (kochia (Kochia scoparia); 31 g ai/ha, scale 0 to 100)
40: Plant response rating, Barnyardgrass ([2]; 31 g ai/ha, scale 0 to 100)
100: Chickweed plant response rating ([8]; 62 g ai/ha) | Chickweed plant response rating ([8]; 125 g ai/ha) | Lambsquarters plant response rating ([10]; 125 g ai/ha) | Plant response rating, Windgrass ([16]; 31 g ai/ha, scale 0 to 100) | Plant response rating, Windgrass ([16]; 62 g ai/ha, scale 0 to 100) | Plant response rating, Windgrass ([16]; 125 g ai/ha, scale of 0 to 100) | Plant response rating, Pigweed, Palmer ([17]; 62 g ai/ha, scale 0 to 100) | Plant response rating, Pigweed, Palmer ([17]; 125 g ai/ha, scale of 0 to 100)
10: Plant response rating, Velvetleaf ([6]; 16 g ai/ha, scale of 0 to 100) | Blackgrass plant response rating ([7]; 62 g ai/ha) | Plant response rating, Oat, Wild ([9]; 16 g ai/ha, scale of 0 to 100) | Nutsedge, Yellow plant response rating ([12]; 62 g ai/ha) | Plant response rating, Morningglory ([13]; 16 g ai/ha, scale of 0 to 100)
70: Oat, Wild plant response rating ([9]; 125 g ai/ha)
95: Plant response rating, Barnyardgrass ([2]; 125 g ai/ha, scale of 0 to 100) | Lambsquarters plant response rating ([10]; 62 g ai/ha)
20: Plant response rating, Barnyardgrass ([2]; 16 g ai/ha, scale 0 to 100)
60: Plant response rating, Johnsongrass ([5]; 125 g ai/ha, scale of 0 to 100) | Plant response rating, Pigweed, Palmer ([17]; 31 g ai/ha, scale 0 to 100)
50: Plant response rating, Poinsettia, Wild ([1]; 125 g ai/ha, scale of 0 to 100) | Plant response rating, Johnsongrass ([5]; 62 g ai/ha, scale 0 to 100) | Oat, Wild plant response rating ([9]; 62 g ai/ha)
30: Plant response rating, Oat, Wild ([3]; 125 g ai/ha, scale of 0 to 100) | Plant response rating, Ragweed ([11]; 31 g ai/ha, scale 0 to 100) | Nutsedge, Yellow plant response rating ([12]; 125 g ai/ha) | Ryegrass, Italian plant response rating ([15]; 62 g ai/ha)
65: Plant response rating, Surinam Grass ([4]; 31 g ai/ha, scale 0 to 100) | Plant response rating, Surinam Grass ([4]; 62 g ai/ha, scale 0 to 100) | Blackgrass plant response rating ([7]; 125 g ai/ha) | Plant response rating, Lambsquarters ([10]; 16 g ai/ha, scale of 0 to 100) | Morningglory plant response rating ([13]; 62 g ai/ha) | Morningglory plant response rating ([13]; 125 g ai/ha)
90: Plant response rating, Lambsquarters ([10]; 31 g ai/ha, scale 0 to 100)
5: Plant response rating, Poinsettia, Wild ([1]; 62 g ai/ha, scale 0 to 100) | Plant response rating, Oat, Wild ([3]; 62 g ai/ha, scale 0 to 100) | Plant response rating, Blackgrass ([7]; 16 g ai/ha) | Plant response rating, Wheat ([14]; 16 g ai/ha, scale of 0 to 100) | Plant response rating, Wheat ([14]; 31 g ai/ha, scale 0 to 100) | Plant response rating, Ryegrass, Italian ([15]; 16 g ai/ha, scale of 0 to 100) | Plant response rating, Ryegrass, Italian ([15]; 31 g ai/ha, scale 0 to 100) | Plant response rating, Galium ([18]; 62 g ai/ha, scale 0 to 100) | Plant response rating, Galium ([18]; 125 g ai/ha, scale of 0 to 100)
35: Plant response rating, Velvetleaf ([6]; 31 g ai/ha, scale 0 to 100) | Plant response rating, Blackgrass ([7]; 31 g ai/ha) | Ragweed plant response rating ([11]; 62 g ai/ha) | Wheat plant response rating [14, 19] | Ryegrass, Italian plant response rating ([15]; 125 g ai/ha)
